Source: patent US20260191998A1, “INDOLE PHTHALOCYANINE COMPOUND, PREPARATION METHOD THEREFOR, AND USE THEREOF IN TUMOR DIAGNOSIS IMAGING” (JIANGSU YAHONG MEDITECH CO., LTD., priority 2022, published 2026)

Columns and labels:
[1] = Kinetic solubility in phosphate buffered saline (HPLC); format: physicochemical; conditions: phosphate buffered saline (PBS), aqueous buffer, kinetic from dmso stock, 25° C., shaken 2 hours, from 10 mM DMSO stock
Experimental: The compounds were weighed in an appropriate amount and dissolved in DMSO to prepare a 10 mM stock solution. 30 μL of the stock solution was taken and 970 μL of phosphate buffered saline solution (PBS) was added thereto. The solution was shaken at 25° C. on a thermostatic mixer for 2 hours, and centrifuged at 12000 rpm for 10 minutes. The supernatant was taken, and the kinetic solubility of each compound in phosphate buffered saline solution (PBS) was determined by Waters Acquity Arc HPLC.

[2] = biological target: hERG channels (Homo sapiens, UniProt Q12809); test: hERG whole-cell patch clamp in HEK 293 cells stably expressing hERG; format: cell-based; conditions: HEK 293 stably expressing hERG, tail current
Experimental: The HEK 293 cell line (K1236) stably expressing hERG was purchased from Invitrogen. Cells were cultured in 85% DMEM, 10% dialyzed FBS, 0.1 mM NEAA, 25 mM HEPES, 100 U/mL penicillin-streptomycin, 5 μg/mL blasticidin and 400 μg/mL geneticin. Cells were split using TrypLE™ about three times a week, and maintained at a confluence of about 40% to about 80%. Before measurement, cells were cultured at a density of 5×10^5 in a 6 cm culture dish and induced with 1 μg/mL doxycycline for 48 hours.
Extracellular solution (mM): 132 NaCl, 4 KCl, […], 0.5 MgCl2, 11.1 glucose, 10 HEPES (pH 7.35 adjusted with NaOH);
Intercellular solution (mM): 140 KCl, 2 MgCl2, 10 EGTA, 10 HEPES, 5 MgATP (pH 7.35 adjusted with KOH).
The test compounds were formulated in DMSO to prepare a stock solution with a final concentration of 10 mM.
Then, the stock solution of each compound was diluted with DMSO in a 1:3 serial dilution to prepare five intermediate solutions with concentrations of 3, 1, 0.33, 0.12, 0.04 mM or 3.33, 1.11, 0.37, 0.12 mM, respectively.
Before testing, the final working solutions were prepared by diluting the intermediate solutions 1000 times with the extracellular solution. The concentration of DMSO in the working solutions was within a range around 0.1%.
The working solutions at five different concentrations of 3, 1, 0.33, 0.12 and 0.04 μM were used to determine the potential inhibition effect of the compounds on hERG channels and to fit concentration-response curves and calculate IC50.
The coverslip was removed from the cell culture dish and placed on a microscope stage.
A 10× objective was used to locate cells to be observed. An electrode tip was located under the microscope using the 10× objective by focusing above the plane of the cells. Once the tip was in focus, the electrode was advanced downward towards the cells under rough control of the manipulator, while the objective was moved so as to keep the tip in focus.
When the electrode was directly over a cell, the objective was switched to a 40× objective and fine control of the manipulator was used to enable to gradually approach the cell surface.
With gentle suction through a side port of an electrode holder, a giga-ohm seal was formed.
Cfast was used to eliminate the capacitive current consistent with the voltage step. Brief and strong suction was applied repeatedly until the membrane patch ruptured and the whole-cell configuration was obtained.
At this point, membrane potential was set to −60 mV in order to ensure that hERG channels were not open. Then, Cslow on the amplifier was used to remove the spikes of capacitive current.
Holding potential was set to −90 mV for 500 ms. Current was recorded at 20 kHz and filtering was carried out at 10 kHz. Leak current was tested at −80 mV for 500 ms.
The hERG current was elicited by depolarizing at +30 mV for 4.8 seconds, and then the voltage was restored to −50 mV for 5.2 seconds to remove the inactivation and observe the deactivating tail current. The maximum of tail current size was used to determine hERG current amplitude.
Current was recorded for 120 seconds to evaluate the current stability. Only stable cells with recording parameters above thresholds were used for drug administrations.
Firstly, vehicle control was applied to the cells to establish the baseline. […] The hERG current in the presence of the test compound was recorded for about 5 minutes to reach a steady state, and then 5 sweeps were captured. For dose-response testing, multiple compounds were applied to the cells cumulatively from low to high concentrations (multiple compounds were detected simultaneously). The positive control, Dofetilide at a concentration of 150 nM, was also applied to each cell post hERG current measurement at the highest concentration of the test compound, which was used as an internal low control for normalization of percentage inhibition. […]

[3] = UV-VIS absorption spectra (optical property test); format: physicochemical; conditions: 10 μM, DMSO solution; for Absorbance × 10^4: at maximum absorption peak
Experimental: The UV-VIS absorption spectra of the compounds (10 μM, DMSO solution) were detected using Shimadzu UV2600 spectrophotometer, and the maximum absorption peak and absorbance of each compound were obtained.

[4] = MRC5 proliferation test (CellTiter-Glo); format: cell-based; conditions: human, MRC5 cells (normal cells), 3 days incubation, read-out: MRC5 (IC50, nM), inhibitory effect on proliferation of normal cells
Text: • MRC5 (ATCC; Cat. No.: CCL-171)
• Culture medium EMEM (ATCC, 30-2003) • Fetal bovine serum (Gibco, 10091148) • Penicillin-streptomycin double antibody (Gibco, S110JV) • DPBS (Gibco, 14190-144) • CellTiter-Glo® assay kit (Promega, G7573) • Trypsin (0.25%) (Gibco, 25200-056) • DMSO (Sigma, D2650)
• Biosafety cabinet (AIRTECH, BSC-1300A II) • Automated cell counter (Life Technologies, countess II) • Multifunctional microplate reader (Biotek, H1FM) • Shaker (Hangzhou Allsheng Instruments Co., Ltd., OS-100) • XLFIT 5.3 (Shanghai Inforstack Co., Ltd.)
For this test method, the following experiment was performed in a biosafety cabinet with the specific steps as follows. • (1) Cells were seeded in a […] (in which the culture medium was EMEM). One day later, the previous culture medium EMEM was poured off, and 5 mL of DPBS was added to wash the cells. Then DPBS was pipetted and discarded. An appropriate amount of trypsin was then added. The plate was placed in a 5% CO2 cell incubator at 37° C. to digestion for about 2 to 5 minutes, and then taken out. New culture medium EMEM was added. The cells were pipetted up and down to resuspend evenly. The cells were then counted by an automated cell counter. • (2) Cells were seeded in columns 1 to 11 of a 96-well plate (Corning, Cat. No. 3610) at a density of 3000 cells per well in 100 μL of culture medium EMEM, and 100 μL of culture medium EMEM free of cells was added into column 12 of the wells. Then, the plate was placed in the 5% CO2 incubator at 37° C. for 24 hours. • (3) Next, the compound of the present invention was 2-fold serially diluted into 8 dose points starting at 10 μM. 10 μL of the serially diluted compound was pipetted and added to 100 μL of cells in columns 1 to 10, and 10 μL of the culture medium EMEM containing 2% DMSO was added to both columns 11 and 12. The plate was placed in the 5% CO2 incubator at 37° C. and incubated for 3 days (Note: column 11 was used as a MAX well with cells but without the compound; column 12 was used as a MIN well without both cell and compound). • (4) The cell viability detection reagent in the above CellTiter-Glo® assay kit was then added to the 96-well plate at 50 μL per well according to the instruction, and shaken on a shaker in dark for 5 to 10 minutes. The cell viability was then measured using a multifunctional microplate reader. Finally, the inhibition of the compound of the present invention on cell proliferation was plotted by XLFIT software, and the half inhibitory concentration, IC50 value of the compound of the present invention was calculated therefrom.

[5] = system: RT112 tumor; test: Tumor/background ratio in subcutaneous RT112 tumor model mice; format: in vivo; conditions: 2 mpk intraperitoneal, 48 hours after injection
Text: The subcutaneous tumor model mice inoculated with RT112 tumor were selected. Each compound was administrated at a dose of 2 mpk, and intraperitoneally injected.

[6] = system: human bladder cancer cell line UM-UC-3; test: In vitro imaging effect test with addition of BSP, UM-UC-3; format: cell-based; conditions: 250 μM BSP, compound 1-20 μM with surfactin 1:5, 30 minutes
Experimental: UM-UC-3 (1.5×10^4/well) were cultured in EMEM medium (containing 10% fetal bovine serum (FBS) and 1% antibiotics (100 U/mL penicillin and 100 U/mL streptomycin)) and seeded in a 96-well plate in advance. The plate was cultured in a 5% CO2 cell culture incubator at 37° C. overnight. The following day, the culture medium was sucked away, and 250 μM of BSP was added to the test wells and preconditioned for 10 minutes, followed by addition of the culture medium containing an appropriate concentration (1-20 μM) of the compound and surfactin (the molar ratio of the test compound to the surfactin being 1:5) with or without 250 μM of BSP, and then incubated for 30 minutes. The cells were rinsed three times with PBS solution, and the near-infrared fluorescence intensity in the bladder cancer cells was observed using an integrated fluorescence microscopic imaging system from Keyence. The conditions for near-infrared photography were Ex=775/50 nm and Em=845/55 nm.

Chain of hERG channels (Q12809 whole entry): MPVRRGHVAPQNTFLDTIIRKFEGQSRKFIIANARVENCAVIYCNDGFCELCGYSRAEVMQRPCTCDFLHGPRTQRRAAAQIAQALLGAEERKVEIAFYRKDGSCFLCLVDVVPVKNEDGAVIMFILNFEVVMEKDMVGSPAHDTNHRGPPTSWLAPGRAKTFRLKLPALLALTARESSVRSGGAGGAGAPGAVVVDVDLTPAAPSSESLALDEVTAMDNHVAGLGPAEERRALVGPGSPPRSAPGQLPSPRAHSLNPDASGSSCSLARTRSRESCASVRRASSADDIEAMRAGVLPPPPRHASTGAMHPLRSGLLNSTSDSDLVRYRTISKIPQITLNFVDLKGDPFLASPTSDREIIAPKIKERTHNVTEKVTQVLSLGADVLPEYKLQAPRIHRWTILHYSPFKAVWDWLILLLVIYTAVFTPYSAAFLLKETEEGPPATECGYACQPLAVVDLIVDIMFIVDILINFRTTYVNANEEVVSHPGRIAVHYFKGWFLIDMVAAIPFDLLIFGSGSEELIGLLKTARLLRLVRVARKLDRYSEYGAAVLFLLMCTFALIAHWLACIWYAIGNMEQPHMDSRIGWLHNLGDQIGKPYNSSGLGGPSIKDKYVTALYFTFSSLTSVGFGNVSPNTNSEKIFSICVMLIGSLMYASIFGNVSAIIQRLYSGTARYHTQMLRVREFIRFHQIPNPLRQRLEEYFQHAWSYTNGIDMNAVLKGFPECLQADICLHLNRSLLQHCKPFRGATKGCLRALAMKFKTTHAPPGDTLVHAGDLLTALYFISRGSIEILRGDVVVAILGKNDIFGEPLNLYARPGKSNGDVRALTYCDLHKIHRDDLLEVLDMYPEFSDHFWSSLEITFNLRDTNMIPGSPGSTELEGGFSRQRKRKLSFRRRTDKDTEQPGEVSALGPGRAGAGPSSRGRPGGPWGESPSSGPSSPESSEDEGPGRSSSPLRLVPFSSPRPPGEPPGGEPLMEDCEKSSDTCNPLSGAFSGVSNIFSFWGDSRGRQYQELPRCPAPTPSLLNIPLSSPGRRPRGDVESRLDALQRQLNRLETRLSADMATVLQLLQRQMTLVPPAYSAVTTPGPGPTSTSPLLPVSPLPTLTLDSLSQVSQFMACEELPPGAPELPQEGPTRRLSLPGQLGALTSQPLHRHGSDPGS

| Structure (SMILES) | solubility kinetic at 2 h [1] [µg/mL] | IC50 [2] [nM] | Absorption peak [3] [nm] | Absorbance × 10^4 [3] | IC50 at 3 days [4] [nM] | Tumor/background ratio [5] | Uptake by UM-UC-3 with or without BSP [6] |
| --- | --- | --- | --- | --- | --- | --- | --- |
| CC[N+]1=C(/C=C/C2=C(Cl)C(=C/C=C3/N(CCCCCC(=O)Oc4ccccc4)c4ccccc4C3(C)C)/CCC2)C(C)(C)c2ccccc21.[Cl-] [Comparative Example 1, 2-((E)-2-((E)-2-chloro-3-(2-((E)-3,3-dimethyl-1-(6-oxo-6-phenoxyhexyl)indolin-2-ylidene)ethenyl)cyclohex-1-en-1-yl)ethenyl)-1-ethyl-3,3-dimethyl-3H-indol-1-ium Chloride, reference compound] | 5 | < 120 | 794.5 | 2.16 | 2700 | 2.4 |  |
| CC[N+]1=C(/C=C/C2=C(Cl)C(=C/C=C3/N(CCCCCC(=O)Oc4ccccc4)c4ccccc4C3(C)C)/CC2)C(C)(C)c2ccccc21 [Example 4, 2-((E)-2-((E)-2-chloro-3-(2-((E)-3,3-dimethyl-1-(6-oxo-6-phenoxyhexyl)indolin-2-ylidene)ethenyl)cyclopent-1-en-1-yl)ethenyl)-1-ethyl-3,3-dimethyl-3H-indol-1-ium Chloride] |  |  | 821 | 2.36 |  |  | may be weakened or enhanced by BSP |
| CC[N+]1=C(/C=C/C2=C(Cl)C(=C/C=C3/N(Cc4ccc(C(=O)Oc5ccccc5)cc4)c4ccccc4C3(C)C)/CCC2)C(C)(C)c2ccccc21 [Example 6, 2-((E)-2-((E)-2-chloro-3-(2-((E)-3,3-dimethyl-1-(4-(phenoxycarbonyl)bromo)indolin-2-ylidene)ethenyl)cyclohex-1-en-1-yl)ethenyl)-1-ethyl-3,3-dimethyl-3H-indol-1-ium Chloride] |  |  | 795 | 1.8 |  |  | may be weakened or enhanced by BSP |
| COCCOCCN1/C(=C/C=C2\CCCC(/C=C/C3=[N+](CCOCCOCCC(=O)O)c4ccccc4C3(C)C)=C2Cl)C(C)(C)c2ccccc21 [Example 68, 1-(2-(2-(2-carboxyethoxy)ethoxy)ethyl)-2-((E)-2-((E)-2-chloro-3-(2-((E)-1-(2-(2-methoxyethoxy)ethyl)-3,3-dimethylindolin-2-ylidene)ethenyl)cyclohex-1-en-1-yl)ethenyl)-3,3-dimethyl-3H-indol-1-ium 2,2,2-trifluoroacetate] | > 250 | 890 | 796 | 2.74 | > 10000 | 2.5 |  |
| COCCOCCOCCN1/C(=C/C=C2\CCCC(/C=C/C3=[N+](CCOCCOCCC(=O)O)c4ccccc4C3(C)C)=C2Cl)C(C)(C)c2ccccc21 [Example 70] | > 250 | 568 | 796.5 | 2.09 | > 10000 | 2.7 |  |
| COCCOCCOCCOCCN1/C(=C/C=C2\CCCC(/C=C/C3=[N+](CCOCCOCCC(=O)O)c4ccccc4C3(C)C)=C2Cl)C(C)(C)c2ccccc21 [Example 73, 1-(2-(2-(2-carboxyethoxy)ethoxy)ethyl)-2-((E)-2-((E)-2-chloro-3-(2-((E)-3,3-dimethyl-1-(2,5,8,11-tetraoxatridecan-13-yl)indolin-2-ylidene)ethenyl)cyclohex-1-en-1-yl)ethenyl)-3,3-dimethyl-3H-indol-1-ium Chloride] | > 250 | 1660 | 796.5 | 2.15 | > 10000 | 2.7 |  |
| CN(C)C1CC(/C=C/C2=[N+](C)c3ccccc3C2(C)C)=C(Cl)C(=C/C=C2/N(CCCCCC(=O)O)c3ccccc3C2(C)C)/C1 (stereo not drawn) [Example 87] | 38 | 1420 | 785 | 1.91 | > 10000 | 3.3 |  |
| C[N+]1=C(/C=C/C2=C(Cl)C(=C/C=C3/N(CCOCCC(=O)Oc4ccccc4)c4ccccc4C3(C)C)/CCC2)C(C)(C)c2ccccc21.[Cl-] [Example 95] | 99 | 980 | 793.5 | 2.41 | > 10000 | 2.8 |  |
